Experimental data from patent US9738634B2, “Heterocyclic amide compound and herbicide” (SYNGENTA PARTICIPATIONS AG, priority 2013, dated 2017).

Assays:
Format in all cases: in vivo
oval-leafed pondweed [1] = assay: Test Example 2: weedkilling efficacy, growth period weed treatment in the submerged state; C: oval-leafed pondweed
Procedure, shortened: (§1)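 Weeds treated at the 1-2 leaf stage by application of diluted emulsion onto floodwater (4 cm depth, alluvial soil) at specified g/ha. Grown in greenhouse at 25 to 30° C; herbicidal effect rated three weeks after treatment.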

oval-leafed pondweed [2] = assay: Test Example 1: weedkilling efficacy, preemergent weed treatment in the submerged state; C: oval-leafed pondweed
Procedure, shortened: (§2)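 Pre-emergence application onto floodwater (4 cm, alluvial soil) on the day of sowing, dose expressed as g/ha from diluted emulsion formulation. Weeds sown with 2.5-leaf transplanted rice as crop; plants held at 25–30 °C in greenhouse and scored against assessment criteria after 3 weeks.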

bulrush [3] = assay: Test Example 1: weedkilling efficacy, preemergent weed treatment in the submerged state; B: bulrush
Procedure, shortened: as §2

bulrush [4] = assay: Test Example 2: weedkilling efficacy, growth period weed treatment in the submerged state; B: bulrush
Procedure, shortened: as §1

barnyard grass [5] = assay: Test Example 2: weedkilling efficacy, growth period weed treatment in the submerged state; A: barnyard grass
Procedure, shortened: as §1

transplanted rice = assay: Test Example 1: preemergent weed treatment in the submerged state, effect on crop; a: transplanted rice
Procedure, shortened: as §2

barnyard grass [6] = assay: Test Example 1: weedkilling efficacy, preemergent weed treatment in the submerged state; A: barnyard grass
Procedure, shortened: as §2

Compound | C (oval-leafed pondweed) weedkilling efficacy grade (oval-leafed pondweed [1]; treatment dosage 252 g/ha) | B (bulrush) weedkilling efficacy grade (bulrush [4]; treatment dosage 252 g/ha) | A (barnyard grass) weedkilling efficacy grade (barnyard grass [5]; treatment dosage 252 g/ha) | C (oval-leafed pondweed) weedkilling efficacy grade (oval-leafed pondweed [1]; treatment dosage 320 g/ha) | C: oval-leafed pondweed, weed kill grade (oval-leafed pondweed [2]; treatment dosage 320 g/ha) | B: bulrush, weed kill grade (bulrush [3]; treatment dosage 320 g/ha) | B (bulrush) weedkilling efficacy grade (bulrush [4]; treatment dosage 320 g/ha) | A (barnyard grass) weedkilling efficacy grade (barnyard grass [5]; treatment dosage 320 g/ha) | a: transplanted rice, effect on crop grade (transplanted rice; treatment dosage 320 g/ha) | A: barnyard grass, weed kill grade (barnyard grass [6]; treatment dosage 320 g/ha) | further results
CC(C)(C(=O)Nc1cc(Cl)cc(Cl)n1)N1COCN(c2ccccc2Cl)C1=O [A-6-06] | 5 (weed kill ratio 90% or more, (practically complete withering)) | 5 (weed kill ratio 90% or more, (practically complete withering)) | 5 (weed kill ratio 90% or more, (practically complete withering)) | – | – | – | – | – | – | – | C: oval-leafed pondweed, weed kill grade (oval-leafed pondweed [2]; treatment dosage 252 g/ha): 5 (weed kill ratio 90% or more, (practically complete withering)); B: bulrush, weed kill grade (bulrush [3]; treatment dosage 252 g/ha): 5 (weed kill ratio 90% or more, (practically complete withering)); a: transplanted rice, effect on crop grade (transplanted rice; treatment dosage 252 g/ha): 2 (weed kill ratio 20% or more, less than 40%); A: barnyard grass, weed kill grade (barnyard grass [6]; treatment dosage 252 g/ha): 5 (weed kill ratio 90% or more, (practically complete withering))
Cc1cccc(N2COCN(C(C)(C)C(=O)Nc3cc(C(F)(F)F)ccn3)C2=O)c1 [A-6-07] | – | – | – | 3 (weed kill ratio 40% or more, less than 70%) | 5 (weed kill ratio 90% or more, (practically complete withering)) | 5 (weed kill ratio 90% or more, (practically complete withering)) | 5 (weed kill ratio 90% or more, (practically complete withering)) | 4 (weed kill ratio 70% or more, less than 90%) | 1 (weed kill ratio 5% or more, less than 20%) | 5 (weed kill ratio 90% or more, (practically complete withering)) | –
Cc1cccc(N2COCN(C(C)(C)C(=O)Nc3cc(Cl)cc(Cl)n3)C2=O)c1 [A-6-08] | – | – | – | 4 (weed kill ratio 70% or more, less than 90%) | 5 (weed kill ratio 90% or more, (practically complete withering)) | 5 (weed kill ratio 90% or more, (practically complete withering)) | 5 (weed kill ratio 90% or more, (practically complete withering)) | 5 (weed kill ratio 90% or more, (practically complete withering)) | 0 (weed kill ratio 5% or less (practically no effect)) | 5 (weed kill ratio 90% or more, (practically complete withering)) | –
Cc1ccc(N2COCN(C(C)(C)C(=O)Nc3cc(F)cc(F)n3)C2=O)cc1 [A-6-10] | – | – | – | 5 (weed kill ratio 90% or more, (practically complete withering)) | 5 (weed kill ratio 90% or more, (practically complete withering)) | 5 (weed kill ratio 90% or more, (practically complete withering)) | 5 (weed kill ratio 90% or more, (practically complete withering)) | 4 (weed kill ratio 70% or more, less than 90%) | 1 (weed kill ratio 5% or more, less than 20%) | 5 (weed kill ratio 90% or more, (practically complete withering)) | –
Cc1ccc(N2COCN(C(C)(C)C(=O)Nc3cc(Cl)cc(F)n3)C2=O)cc1 [A-6-11] | – | – | – | 5 (weed kill ratio 90% or more, (practically complete withering)) | 5 (weed kill ratio 90% or more, (practically complete withering)) | 5 (weed kill ratio 90% or more, (practically complete withering)) | 5 (weed kill ratio 90% or more, (practically complete withering)) | 4 (weed kill ratio 70% or more, less than 90%) | 0 (weed kill ratio 5% or less (practically no effect)) | 5 (weed kill ratio 90% or more, (practically complete withering)) | –
Cc1ccc(N2COCN(C(C)(C)C(=O)Nc3cc(Cl)cc(Cl)n3)C2=O)cc1 [A-6-12] | – | – | – | 5 (weed kill ratio 90% or more, (practically complete withering)) | 5 (weed kill ratio 90% or more, (practically complete withering)) | 5 (weed kill ratio 90% or more, (practically complete withering)) | 5 (weed kill ratio 90% or more, (practically complete withering)) | 4 (weed kill ratio 70% or more, less than 90%) | 2 (weed kill ratio 20% or more, less than 40%) | 5 (weed kill ratio 90% or more, (practically complete withering)) | –
O=C1N(c2ccccc2)COCN1C1(C(=O)Nc2cc(Cl)cc(Cl)n2)CC1 [A-7-04] | – | – | – | – | – | – | – | – | – | – | C (oval-leafed pondweed) weedkilling efficacy grade (oval-leafed pondweed [1]; treatment dosage 1000 g/ha): 0 (weed kill ratio 5% or less (practically no effect)); C: oval-leafed pondweed, weed kill grade (oval-leafed pondweed [2]; treatment dosage 1000 g/ha): 0 (weed kill ratio 5% or less (practically no effect)); B: bulrush, weed kill grade (bulrush [3]; treatment dosage 1000 g/ha): 5 (weed kill ratio 90% or more, (practically complete withering)); B (bulrush) weedkilling efficacy grade (bulrush [4]; treatment dosage 1000 g/ha): 1 (weed kill ratio 5% or more, less than 20%); A (barnyard grass) weedkilling efficacy grade (barnyard grass [5]; treatment dosage 1000 g/ha): 0 (weed kill ratio 5% or less (practically no effect)); a: transplanted rice, effect on crop grade (transplanted rice; treatment dosage 1000 g/ha): 0 (weed kill ratio 5% or less (practically no effect)); A: barnyard grass, weed kill grade (barnyard grass [6]; treatment dosage 1000 g/ha): 0 (weed kill ratio 5% or less (practically no effect))
CC1=C(c2ccccc2)C(=O)N(C(C)(C)C(=O)Nc2nnc(-c3ccccc3)s2)CO1 [B-1-11] | 3 (weed kill ratio 40% or more, less than 70%) | 4 (weed kill ratio 70% or more, less than 90%) | 1 (weed kill ratio 5% or more, less than 20%) | – | – | – | – | – | – | – | C (oval-leafed pondweed) weedkilling efficacy grade (oval-leafed pondweed [2]; treatment dosage 252 g/ha): 5 (weed kill ratio 90% or more, (practically complete withering)); B (bulrush) weedkilling efficacy grade (bulrush [3]; treatment dosage 252 g/ha): 5 (weed kill ratio 90% or more, (practically complete withering)); a (transplanted rice) effect on crop grade (transplanted rice; treatment dosage 252 g/ha): 0 (weed kill ratio 5% or less (practically no effect)); A (barnyard grass) weedkilling efficacy grade (barnyard grass [6]; treatment dosage 252 g/ha): 4 (weed kill ratio 70% or more, less than 90%)
CC1=C(c2cccnc2F)C(=O)N(C(C)(C)C(=O)Nc2cccc(Br)n2)CO1 [B-2-10] | – | – | – | 5 (weed kill ratio 90% or more, (practically complete withering)) | – | – | 5 (weed kill ratio 90% or more, (practically complete withering)) | 5 (weed kill ratio 90% or more, (practically complete withering)) | – | – | C (oval-leafed pondweed) weedkilling efficacy grade (oval-leafed pondweed [2]; treatment dosage 320 g/ha): 5 (weed kill ratio 90% or more, (practically complete withering)); B (bulrush) weedkilling efficacy grade (bulrush [3]; treatment dosage 320 g/ha): 5 (weed kill ratio 90% or more, (practically complete withering)); a (transplanted rice) effect on crop grade (transplanted rice; treatment dosage 320 g/ha): 1 (weed kill ratio 5% or more, less than 20%); A (barnyard grass) weedkilling efficacy grade (barnyard grass [6]; treatment dosage 320 g/ha): 5 (weed kill ratio 90% or more, (practically complete withering))
CC1=C(c2cccnc2F)C(=O)N(C(C)(C)C(=O)Nc2cc(C(F)(F)F)ccn2)CO1 [B-2-17] | 3 (weed kill ratio 40% or more, less than 70%) | 5 (weed kill ratio 90% or more, (practically complete withering)) | 4 (weed kill ratio 70% or more, less than 90%) | – | – | – | – | – | – | – | C (oval-leafed pondweed) weedkilling efficacy grade (oval-leafed pondweed [2]; treatment dosage 252 g/ha): 5 (weed kill ratio 90% or more, (practically complete withering)); B (bulrush) weedkilling efficacy grade (bulrush [3]; treatment dosage 252 g/ha): 5 (weed kill ratio 90% or more, (practically complete withering)); a (transplanted rice) effect on crop grade (transplanted rice; treatment dosage 252 g/ha): 3 (weed kill ratio 40% or more, less than 70%); A (barnyard grass) weedkilling efficacy grade (barnyard grass [6]; treatment dosage 252 g/ha): 5 (weed kill ratio 90% or more, (practically complete withering))
CC1=C(c2ccccc2)C(=O)N(C(C)(C)C(=O)Nc2cc(Cl)cc(-c3ccccc3)n2)CO1 [B-2-45] | – | – | – | 4 (weed kill ratio 70% or more, less than 90%) | – | – | 2 (weed kill ratio 20% or more, less than 40%) | 4 (weed kill ratio 70% or more, less than 90%) | – | – | C (oval-leafed pondweed) weedkilling efficacy grade (oval-leafed pondweed [2]; treatment dosage 320 g/ha): 4 (weed kill ratio 70% or more, less than 90%); B (bulrush) weedkilling efficacy grade (bulrush [3]; treatment dosage 320 g/ha): 5 (weed kill ratio 90% or more, (practically complete withering)); a (transplanted rice) effect on crop grade (transplanted rice; treatment dosage 320 g/ha): 2 (weed kill ratio 20% or more, less than 40%); A (barnyard grass) weedkilling efficacy grade (barnyard grass [6]; treatment dosage 320 g/ha): 5 (weed kill ratio 90% or more, (practically complete withering))
CC1=C(c2ccccc2)C(=O)N(C(C)(C)C(=O)Nc2cc(Oc3ccccc3)cc(Cl)n2)CO1 [B-2-48] | – | – | – | – | – | – | – | – | – | – | C (oval-leafed pondweed) weedkilling efficacy grade (oval-leafed pondweed [1]; treatment dosage 266 g/ha): 0 (weed kill ratio 5% or less (practically no effect)); C (oval-leafed pondweed) weedkilling efficacy grade (oval-leafed pondweed [2]; treatment dosage 266 g/ha): 4 (weed kill ratio 70% or more, less than 90%); B (bulrush) weedkilling efficacy grade (bulrush [3]; treatment dosage 266 g/ha): 5 (weed kill ratio 90% or more, (practically complete withering)); B (bulrush) weedkilling efficacy grade (bulrush [4]; treatment dosage 266 g/ha): 2 (weed kill ratio 20% or more, less than 40%); A (barnyard grass) weedkilling efficacy grade (barnyard grass [5]; treatment dosage 266 g/ha): 0 (weed kill ratio 5% or less (practically no effect)); a (transplanted rice) effect on crop grade (transplanted rice; treatment dosage 266 g/ha): 0 (weed kill ratio 5% or less (practically no effect)); A (barnyard grass) weedkilling efficacy grade (barnyard grass [6]; treatment dosage 266 g/ha): 5 (weed kill ratio 90% or more, (practically complete withering))
CC1=C(c2ccccc2)C(=O)N(C(C)(C)C(=O)Nc2cc(-c3ccccc3)ccn2)CO1 [B-2-59] | 0 (weed kill ratio 5% or less (practically no effect)) | 1 (weed kill ratio 5% or more, less than 20%) | 0 (weed kill ratio 5% or less (practically no effect)) | – | – | – | – | – | – | – | C (oval-leafed pondweed) weedkilling efficacy grade (oval-leafed pondweed [2]; treatment dosage 252 g/ha): 2 (weed kill ratio 20% or more, less than 40%); B (bulrush) weedkilling efficacy grade (bulrush [3]; treatment dosage 252 g/ha): 4 (weed kill ratio 70% or more, less than 90%); a (transplanted rice) effect on crop grade (transplanted rice; treatment dosage 252 g/ha): 0 (weed kill ratio 5% or less (practically no effect)); A (barnyard grass) weedkilling efficacy grade (barnyard grass [6]; treatment dosage 252 g/ha): 2 (weed kill ratio 20% or more, less than 40%)
